Results from patent US6914045B2, “Glycopeptide antibiotics” (Wyeth Holdings Corporation, priority 2001, dated 2005).
Converted amounts (≈) assume the structure as drawn.

Tests used:
Assay in all cases: in vitro antibacterial evaluation, MIC by broth dilution
Assay type in all cases: cell-based
[1] = tested on: Enterococcus sp.; settings: broth dilution, 18 hours at 35° C.
How it was run: (§1)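 Broth dilution per NCCLS standard M7-A2 in Muller-Hinton II […], with an inoculum of 5×10^5 CFU/mL and antibiotic spanning 64-0.06 μg/mL. The MIC is the lowest concentration that inhibits growth of the organism.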

[2] = tested on: Escherichia coli; settings: 18 hours at 35° C.
How it was run: as §1

[3] = tested on: Staphylococcus sp.; settings: broth dilution, 18 hours at 35° C.
How it was run: as §1

[4] = tested on: Streptococcus sp.; settings: broth dilution, 18 hours at 35° C.
How it was run: as §1

N=C1NCC(C(O)C2NC(=O)C(Cc3ccc(OC4OC(CO)C(OC5OC6COC7(OC6C6OC8(OC56)C5CC6CC(C5)CC8C6)C5CC6CC(C5)CC7C6)C(O)C4O)cc3)NC(=O)C(CC3CCCCC3)NC(=O)CNC(=O)C(CO)NC(=O)C(C(O)C3CNC(=N)N3C3OC(CO)C(O)C(O)C3O)NC2=O)N1 (centres unmarked) [Example 106b, Cyclo[3-cyclohexylalanyl-O-[4-O-[2,3:4,6-di-O-(2-adamantylidene)hexopyranosyl]hexopyranosyl]tyrosyl-3-(2-iminoimidazolidin-4-yl)seryl-3-(3-hexopyranosyl-2-iminoimidazolidin-4-yl)-serylserylglycyl]]
MIC Enterococcus avium (GC 4558) ([1]; Enterococcus avium (GC 4558)): 4 µg/mL (≈ 2.58 µM) | MIC Enterococcus faecalis (ATCC 29212) ([1]; Enterococcus faecalis (ATCC 29212)): 8 µg/mL (≈ 5.16 µM) | MIC Enterococcus faecalis (GC 2242) ([1]; Enterococcus faecalis (GC 2242)): 8 µg/mL (≈ 5.16 µM) | MIC Enterococcus faecalis (GC 2691) ([1]; Enterococcus faecalis (GC 2691)): 16 µg/mL (≈ 10.3 µM) | MIC Enterococcus faecalis (GC 3059) ([1]; Enterococcus faecalis (GC 3059)): 16 µg/mL (≈ 10.3 µM) | MIC Enterococcus faecalis (GC 4552) ([1]; Enterococcus faecalis (GC 4552)): 8 µg/mL (≈ 5.16 µM) | MIC Enterococcus faecalis (GC 4553) ([1]; Enterococcus faecalis (GC 4553)): 8 µg/mL (≈ 5.16 µM) | MIC Enterococcus faecalis (GC 4554) ([1]; Enterococcus faecalis (GC 4554)): 16 µg/mL (≈ 10.3 µM) | MIC Enterococcus faecalis (GC 6189) ([1]; Enterococcus faecalis (GC 6189)): 8 µg/mL (≈ 5.16 µM) | MIC Enterococcus faecium (GC 2243) ([1]; Enterococcus faecium (GC 2243)): 8 µg/mL (≈ 5.16 µM) | MIC Enterococcus faecium (GC 4556) ([1]; Enterococcus faecium (GC 4556)): 8 µg/mL (≈ 5.16 µM) | MIC Enterococcus faecium (GC 4557) ([1]; Enterococcus faecium (GC 4557)): 4 µg/mL (≈ 2.58 µM) | MIC Enterococcus faecalis (ATCC 29212) ([1]; strain ATCC 29212): 8 µg/mL (≈ 5.16 µM) | MIC Enterococcus faecalis (GC 2242) ([1]; strain GC 2242): 8 µg/mL (≈ 5.16 µM) | MIC Enterococcus faecium (GC 2243) ([1]; strain GC 2243): 8 µg/mL (≈ 5.16 µM) | MIC Enterococcus faecalis (GC 2691) ([1]; strain GC 2691): 16 µg/mL (≈ 10.3 µM) | MIC Enterococcus faecalis (GC 3059) ([1]; strain GC 3059): 16 µg/mL (≈ 10.3 µM) | MIC Enterococcus faecalis (GC 4552) ([1]; strain GC 4552): 8 µg/mL (≈ 5.16 µM) | MIC Enterococcus faecalis (GC 4553) ([1]; strain GC 4553): 8 µg/mL (≈ 5.16 µM) | MIC Enterococcus faecalis (GC 4554) ([1]; strain GC 4554): 16 µg/mL (≈ 10.3 µM) | MIC Enterococcus faecium (GC 4556) ([1]; strain GC 4556): 8 µg/mL (≈ 5.16 µM) | MIC Enterococcus faecium (GC 4557) ([1]; strain GC 4557): 4 µg/mL (≈ 2.58 µM) | MIC Enterococcus avium (GC 4558) ([1]; strain GC 4558): 4 µg/mL (≈ 2.58 µM) | MIC Enterococcus faecalis (GC 6189) ([1]; strain GC 6189): 8 µg/mL (≈ 5.16 µM) | MIC Escherichia coli (ATCC 25922) ([2]; strain ATCC 25922): 64 µg/mL (≈ 41.2 µM) | MIC Escherichia coli (GC 4559) ([2]; strain GC 4559): 32 µg/mL (≈ 20.6 µM) | MIC Escherichia coli (GC 4560) ([2]; strain GC 4560): 8 µg/mL (≈ 5.16 µM) | MIC Coagulase Negative Staphylococcus (GC 4547) [3]: 8 µg/mL (≈ 5.16 µM) | MIC Coagulase Negative Staphylococcus (GC 4548) [3]: 4 µg/mL (≈ 2.58 µM) | MIC Coagulase Negative Staphylococcus (GC 4549) [3]: 4 µg/mL (≈ 2.58 µM) | MIC Coagulase Negative Staphylococcus (GC 4551) [3]: 8 µg/mL (≈ 5.16 µM) | MIC Staphylococcus aureus (ATCC 29213) [3]: 8 µg/mL (≈ 5.16 µM) | MIC Staphylococcus aureus (GC 1131) [3]: 8 µg/mL (≈ 5.16 µM) | MIC Staphylococcus aureus (GC 3051) [3]: 8 µg/mL (≈ 5.16 µM) | MIC Staphylococcus aureus (GC 3053) [3]: 8 µg/mL (≈ 5.16 µM) | MIC Staphylococcus aureus (GC 4541) [3]: 16 µg/mL (≈ 10.3 µM) | MIC Staphylococcus aureus (GC 4542) [3]: 8 µg/mL (≈ 5.16 µM) | MIC Staphylococcus aureus (GC 4544) [3]: 16 µg/mL (≈ 10.3 µM) | MIC Staphylococcus aureus (GC 4545) [3]: 8 µg/mL (≈ 5.16 µM) | MIC Staphylococcus aureus-SMITH (GC 4543) [3]: 8 µg/mL (≈ 5.16 µM) | MIC Staphylococcus haemolyticus (GC 4546) [3]: 4 µg/mL (≈ 2.58 µM) | MIC Staphylococcus haemolyticus (GC 4546) ([3]; strain GC 4546): 4 µg/mL (≈ 2.58 µM) | MIC Coagulase Negative Staphylococcus (GC 4547) ([3]; strain GC 4547): 8 µg/mL (≈ 5.16 µM) | MIC Coagulase Negative Staphylococcus (GC 4548) ([3]; strain GC 4548): 4 µg/mL (≈ 2.58 µM) | MIC Coagulase Negative Staphylococcus (GC 4549) ([3]; strain GC 4549): 4 µg/mL (≈ 2.58 µM) | MIC Coagulase Negative Staphylococcus (GC 4551) ([3]; strain GC 4551): 8 µg/mL (≈ 5.16 µM) | MIC Staphylococcus aureus-SMITH (GC 4543) ([3]; strain SMITH GC 4543): 8 µg/mL (≈ 5.16 µM) | MIC Staphylococcus aureus (ATCC 29213) ([3]; strain ATCC 29213): 8 µg/mL (≈ 5.16 µM) | MIC Staphylococcus aureus (GC 1131) ([3]; strain GC 1131): 8 µg/mL (≈ 5.16 µM) | MIC Staphylococcus aureus (GC 3051) ([3]; strain GC 3051): 8 µg/mL (≈ 5.16 µM) | MIC Staphylococcus aureus (GC 3053) ([3]; strain GC 3053): 8 µg/mL (≈ 5.16 µM) | MIC Staphylococcus aureus (GC 4541) ([3]; strain GC 4541): 16 µg/mL (≈ 10.3 µM) | MIC Staphylococcus aureus (GC 4542) ([3]; strain GC 4542): 8 µg/mL (≈ 5.16 µM) | MIC Staphylococcus aureus (GC 4544) ([3]; strain GC 4544): 16 µg/mL (≈ 10.3 µM) | MIC Staphylococcus aureus (GC 4545) ([3]; strain GC 4545): 8 µg/mL (≈ 5.16 µM) | MIC Streptococcus agalactiae (GC 4564) ([4]; Streptococcus agalactiae (GC 4564)): 0.5 µg/mL (≈ 0.322 µM) | MIC Streptococcus pneumoniae (ATCC 6301) ([4]; Streptococcus pneumoniae (ATCC 6301)): 0.5 µg/mL (≈ 0.322 µM) | MIC Streptococcus pneumoniae (GC 1894) ([4]; Streptococcus pneumoniae (GC 1894)): <0.12 µg/mL | MIC Streptococcus pneumoniae (GC 4565) ([4]; Streptococcus pneumoniae (GC 4565)): 0.5 µg/mL (≈ 0.322 µM) | MIC Streptococcus pyogenes (GC 4563) ([4]; Streptococcus pyogenes (GC 4563)): 0.5 µg/mL (≈ 0.322 µM) | MIC Streptococcus pneumoniae (ATCC 6301) ([4]; strain ATCC 6301): 0.5 µg/mL (≈ 0.322 µM) | MIC Streptococcus pneumoniae (GC 1894) ([4]; strain GC 1894): <0.12 µg/mL | MIC Streptococcus pyogenes (GC 4563) ([4]; strain GC 4563): 0.5 µg/mL (≈ 0.322 µM) | MIC Streptococcus agalactiae (GC 4564) ([4]; strain GC 4564): 0.5 µg/mL (≈ 0.322 µM) | MIC Streptococcus pneumoniae (GC 4565) ([4]; strain GC 4565): 0.5 µg/mL (≈ 0.322 µM)
